Results from patent US11666642B2, “PDE5 compositions and methods for immunotherapy” (Obsidian Therapeutics, Inc., priority 2017, dated 2023).

Assays:
Type in all cases: cell-based, human
[1] = test system: hPDE5 truncation mutants (R732L) fused to AcGFP in HCT 116 cells; test: Western blot for AcGFP of hPDE5 truncation mutants with Vardenafil; conditions: 10 μM Vardenafil, 24 hours
Method: Protein expression analysis of the truncation mutants was performed in parallel via western blot. […] GAPDH levels were also analyzed to ensure even protein loading.

[2] = test system: hPDE5 mutants fused to GFP in HCT116 cells; test: Sildenafil dose response of combination mutants, MFI by FACS; conditions: for MFI / SR: 24 hours
Method: (§1) Mean fluorescence intensity (MFI) was measured by FACS. Parental HCT116 and cells expressing OT-hPDE5N-019 wildtype construct were also included as controls. […] The destabilizing mutation coefficient ratio was calculated as the fold change in GFP intensity in the hPDE5 mutant constructs compared to the hPDE5 wildtype construct (OT-hPDE5N-019) in the absence of the ligand. Destabilizing mutation coefficient ratios less than 1 are desirable. Stabilization ratios greater than 1 are desired in DDs.

[3] = test system: hPDE5 mutants fused to GFP in HCT116 cells; test: Vardenafil dose response of combination mutants, MFI by FACS; conditions: for MFI / SR: 24 hours
Method: as §1, with “expressing OT-hPDE5N-019 comprising hPDE5 wildtype construct” for “expressing OT-hPDE5N-019 wildtype construct”, “Destabilizing mutation co-efficient ratios less” for “Destabilizing mutation coefficient ratios less”

[4] = test system: hPDE5 mutants fused to GFP in HCT116 cells; test: Tadalafil dose response of combination mutants, MFI by FACS
Method: The response of hPDE5 combination mutants to increasing doses of Tadalafil was tested. HCT116 cells transduced with hPDE5 constructs were treated with Tadalafil for 24 hours at doses ranging from 0.14 to 100 μM. Mean fluorescence intensity (MFI) was measured by FACS. Parental HCT116 and cells expressing OT-hPDE5N-019 comprising hPDE5 wildtype construct were also included as controls. The response of the combination mutants to Tadalafil was compared to the response of the single mutant construct OT-hPDE5N-020. The stabilization ratio (SR) was calculated as the fold change in GFP intensity in Tadalafil treated samples compared to treatment with DMSO (i.e. in the absence of ligand) with the same construct. The destabilizing mutation coefficient was calculated as the fold change in GFP intensity in the hPDE5 mutant constructs compared to the hPDE5 wildtype construct (OT-hPDE5N-0019) in the absence of the ligand. Destabilizing mutation coefficient less than 1 are desirable. Stabilization ratios greater than 1 are desired in DDs.

[5] = test system: hPDE5 mutants fused to GFP in HCT116 cells; test: Response to Sildenafil (5 or 0.5 μM) over time, MFI by FACS
Method: Mean fluorescence intensity (MFI) was measured by FACS. […] The destabilizing mutation coefficient was calculated as the fold change in GFP intensity in the hPDE5 mutant constructs compared to the hPDE5 wildtype construct (OT-hPDE5N-019) in the absence of the ligand. Destabilizing mutation coefficient less than 1 are desirable. Stabilization ratios greater than 1 are desired in DDs. The results and stabilization ratios for time course experiments with 5 or 0.5 μM are presented in Table 30 and Table 31 respectively.

[6] = test system: hPDE5 mutants fused to GFP in HCT116 cells; test: Vardenafil dose response 48 hours, fold change in GFP MFI over DMSO; conditions: 0.1 and 0.3 micro molar
Method: Combination mutants were generated as described in Example 9. […] Mean fluorescence intensity (MFI) of GFP was measured by FACS.

Q: With “OT-hPDE5N-020: construct consisting of E535-Q860 amino acids of hPDE5 with the R732L mutant, SG linker, AcGFP; single mutant construct” as the substance, how does the “AcGFP protein (western blot) with Vardenafil” value [1] read?
A: The value was “showed vardenafil dependent stabilization”.

Q: And the MFI ([2]; DMSO, HCT116)?
A: The MFI was 6172.

Q: And the SR ([2]; Sildenafil 0.04 μM vs DMSO)?
A: Its SR is 0.86.

Q: And the MFI ([2]; Sildenafil 0.04 μM)?
A: Its MFI is 5299.

Q: And the SR ([2]; Sildenafil 0.12 μM vs DMSO)?
A: Its SR is 1.04.

Q: And the MFI ([2]; Sildenafil 0.12 μM)?
A: The MFI was 6441.

Q: What about the SR ([2]; Sildenafil 0.37 μM vs DMSO) of the same substance?
A: The SR was 2.06.

Q: And the MFI ([2]; Sildenafil 0.37 μM)?
A: Its MFI is 12739.

Q: What about the SR ([2]; Sildenafil 1.11 μM vs DMSO) of the same substance?
A: The SR was 2.58.

Q: And the MFI ([2]; Sildenafil 1.11 μM)?
A: Its MFI is 15952.

Q: What about the SR ([2]; Sildenafil 3.33 μM vs DMSO) of the same substance?
A: The SR was 3.82.

Q: And the MFI ([2]; Sildenafil 3.33 μM)?
A: Its MFI is 23549.

Q: What about the SR ([2]; Sildenafil 10 μM vs DMSO) of the same substance?
A: Its SR is 4.49.

Q: And the MFI ([2]; Sildenafil 10 μM)?
A: The MFI was 27693.

Q: And the SR ([2]; Sildenafil 30 μM vs DMSO)?
A: The SR was 7.78.

Q: What about the MFI ([2]; Sildenafil 30 μM) of the same substance?
A: The MFI was 47992.

Q: What about the “destabilizing mutation co-efficient ratio” value ([2]; Sildenafil dose response experiment, absence of ligand, vs OT-hPDE5N-019) of the same substance?
A: The value was 0.1.

Q: And the MFI ([3]; DMSO, HCT116)?
A: Its MFI is 7829.

Q: And the SR ([3]; Vardenafil 0.04 μM vs DMSO)?
A: The SR was 1.88.

Q: What about the MFI ([3]; Vardenafil 0.04 μM) of the same substance?
A: The MFI was 14745.

Q: What about the SR ([3]; Vardenafil 0.12 μM vs DMSO) of the same substance?
A: The SR was 2.15.

Q: What about the MFI ([3]; Vardenafil 0.12 μM) of the same substance?
A: Its MFI is 16866.

Q: And the SR ([3]; Vardenafil 0.37 μM vs DMSO)?
A: Its SR is 3.17.

Q: What about the MFI ([3]; Vardenafil 0.37 μM) of the same substance?
A: The MFI was 24847.

Q: What about the SR ([3]; Vardenafil 1.11 μM vs DMSO) of the same substance?
A: Its SR is 3.94.

Q: What about the MFI ([3]; Vardenafil 1.11 μM) of the same substance?
A: The MFI was 30879.

Q: What about the SR ([3]; Vardenafil 3.33 μM vs DMSO) of the same substance?
A: Its SR is 4.54.

Q: And the MFI ([3]; Vardenafil 3.33 μM)?
A: Its MFI is 35564.

Q: What about the SR ([3]; Vardenafil 10 μM vs DMSO) of the same substance?
A: The SR was 4.99.

Q: What about the MFI ([3]; Vardenafil 10 μM) of the same substance?
A: The MFI was 39089.

Q: And the SR ([3]; Vardenafil 30 μM vs DMSO)?
A: Its SR is 9.62.

Q: And the MFI ([3]; Vardenafil 30 μM)?
A: Its MFI is 75323.

Q: And the destabilizing mutation coefficient ([3]; Vardenafil dose response experiment, absence of ligand, vs OT-hPDE5N-019)?
A: Its destabilizing mutation coefficient is 0.13.

Q: And the MFI ([4]; DMSO, 24 hours, HCT116)?
A: Its MFI is 3806.

Q: What about the destabilizing mutation coefficient ([4]; Tadalafil dose response experiment, absence of ligand, vs OT-hPDE5N-019) of the same substance?
A: The destabilizing mutation coefficient was 0.1.

Q: And the “stabilization ratios over time, Sildenafil 0.5 μM” value ([5]; 0-72 hours, HCT116)?
A: Its value is “greater stabilization”.

Q: What about the MFI ([5]; Sildenafil 0.5 μM, 0 hours) of the same substance?
A: Its MFI is 2727.

Q: And the MFI ([5]; Sildenafil 0.5 μM, 4 hours)?
A: Its MFI is 4127.

Q: And the Stabilization ratio ([5]; Sildenafil 0.5 μM, 4 hours)?
A: Its Stabilization ratio is 1.51.

Q: And the MFI ([5]; Sildenafil 0.5 μM, 8 hours)?
A: The MFI was 5461.

Q: And the Stabilization ratio ([5]; Sildenafil 0.5 μM, 8 hours)?
A: Its Stabilization ratio is 2.00.

Q: What about the MFI ([5]; Sildenafil 0.5 μM, 12 hours) of the same substance?
A: The MFI was 9058.

Q: And the Stabilization ratio ([5]; Sildenafil 0.5 μM, 12 hours)?
A: Its Stabilization ratio is 3.32.

Q: What about the MFI ([5]; Sildenafil 0.5 μM, 16 hours) of the same substance?
A: Its MFI is 14469.

Q: And the Stabilization ratio ([5]; Sildenafil 0.5 μM, 16 hours)?
A: Its Stabilization ratio is 5.31.

Q: And the MFI ([5]; Sildenafil 0.5 μM, 20 hours)?
A: Its MFI is 16142.

Q: And the Stabilization ratio ([5]; Sildenafil 0.5 μM, 20 hours)?
A: The Stabilization ratio was 5.92.

Q: And the MFI ([5]; Sildenafil 0.5 μM, 24 hours)?
A: Its MFI is 20524.

Q: And the Stabilization ratio ([5]; Sildenafil 0.5 μM, 24 hours)?
A: Its Stabilization ratio is 7.53.

Q: What about the MFI ([5]; Sildenafil 0.5 μM, 48 hours) of the same substance?
A: Its MFI is 45754.

Q: And the Stabilization ratio ([5]; Sildenafil 0.5 μM, 48 hours)?
A: The Stabilization ratio was 16.78.

Q: What about the MFI ([5]; Sildenafil 0.5 μM, 72 hours) of the same substance?
A: Its MFI is 58786.

Q: What about the Stabilization ratio ([5]; Sildenafil 0.5 μM, 72 hours) of the same substance?
A: The Stabilization ratio was 21.56.

Q: What about the MFI ([5]; Sildenafil 5 μM, 0 hours) of the same substance?
A: Its MFI is 2668.

Q: And the MFI ([5]; Sildenafil 5 μM, 4 hours)?
A: Its MFI is 4236.

Q: What about the Stabilization ratio ([5]; Sildenafil 5 μM, 4 hours) of the same substance?
A: The Stabilization ratio was 1.59.

Q: What about the MFI ([5]; Sildenafil 5 μM, 8 hours) of the same substance?
A: The MFI was 5672.

Q: What about the Stabilization ratio ([5]; Sildenafil 5 μM, 8 hours) of the same substance?
A: Its Stabilization ratio is 2.13.

Q: And the MFI ([5]; Sildenafil 5 μM, 12 hours)?
A: Its MFI is 9097.

Q: What about the Stabilization ratio ([5]; Sildenafil 5 μM, 12 hours) of the same substance?
A: The Stabilization ratio was 3.41.

Q: What about the MFI ([5]; Sildenafil 5 μM, 16 hours) of the same substance?
A: Its MFI is 14855.

Q: What about the Stabilization ratio ([5]; Sildenafil 5 μM, 16 hours) of the same substance?
A: Its Stabilization ratio is 5.57.

Q: What about the MFI ([5]; Sildenafil 5 μM, 20 hours) of the same substance?
A: Its MFI is 15529.

Q: And the Stabilization ratio ([5]; Sildenafil 5 μM, 20 hours)?
A: Its Stabilization ratio is 5.82.

Q: What about the MFI ([5]; Sildenafil 5 μM, 24 hours) of the same substance?
A: The MFI was 20955.

Q: And the Stabilization ratio ([5]; Sildenafil 5 μM, 24 hours)?
A: Its Stabilization ratio is 7.85.

Q: What about the MFI ([5]; Sildenafil 5 μM, 48 hours) of the same substance?
A: The MFI was 46604.

Q: And the Stabilization ratio ([5]; Sildenafil 5 μM, 48 hours)?
A: Its Stabilization ratio is 17.47.

Q: And the MFI ([5]; Sildenafil 5 μM, 72 hours)?
A: Its MFI is 58479.

Q: And the Stabilization ratio ([5]; Sildenafil 5 μM, 72 hours)?
A: Its Stabilization ratio is 21.92.

Q: What about the “ligand dependent stabilization (fold change in MFI over DMSO) at lower doses of Vardenafil” value [6] of the same substance?
A: The value was “observed at lower doses i.e. 0.1 and 0.3 micro molar concentrations of Vardenafil”.
